According to US11766468B2, “Method of treating prostate cancer with GnRH antagonist” (priority 2012, dated 2023):
Marks after values point to notes of the source that are not given here. Square brackets hold non-standard residues; d marks the D form. Peptide text beside a SMILES is read from it. * marks the point of attachment. dPhe(4-NHCONH2) = NC(=O)Nc1ccc(C[C@@H](N)C(=O)O)cc1; Dihydroorotyl(S) = O=C1C[C@@H](C(=O)*)NC(=O)N1; dPhe(4-Cl) = N[C@H](Cc1ccc(Cl)cc1)C(=O)O; Phe(4-NH2) = Nc1ccc(C[C@H](N)C(=O)O)cc1; d2Nal = N[C@H](Cc1ccc2ccccc2c1)C(=O)O; Lys(iPr) = CC(C)NCCCC[C@H](N)C(=O)O; d3Pal = N[C@H](Cc1cccnc1)C(=O)O

Test: CS21 safety: treatment-emergent adverse events (MedDRA SOC/PT), crude incidence, also by subgroup
Type: in vivo
Experimental: The safety variables for this study were assessed on the following: the frequency and severity of adverse events (AEs); the presence of clinically significant changes in laboratory parameters (clinical chemistry, hematology and urinalysis); changes in electrocardiograms (ECGs) and vital signs; changes detected by physical examination; and body weight.
An AE was therefore any unfavorable or unintended sign (including an abnormal laboratory finding), symptom or disease temporally associated with the use of the product, whether or not related to the IMP.
An adverse drug reaction (ADR) was defined as an AE evaluated by the investigator as being probably or possibly related to treatment with the IMP.
AEs were graded according to the National Cancer Institute (NCI) Common Terminology Criteria for Adverse Events (CTCAE). In accordance with the CTCAE criteria, AEs were rated on a five-point scale corresponding to mild, moderate, severe, life-threatening or disabling and death. For those AEs not described in the CTCAE, a separate five-point rating scale was used for rating of the intensity of AEs as follows below:
Safety parameters were evaluated for all patients included in the ITT analysis set, comprising all 610 randomized patients who received at least one dose of study medication. All safety tables include four columns: the three treatment groups described separately, and the pooled degarelix group.
Adverse events were regarded as ‘treatment-emergent’ if they occurred in the time interval from initial dosing to end-of-study. Adverse events were considered ‘pre-treatment’ if they occurred between screening and the initial injections of IMP. As described above, all AEs were classified according to MedDRA (version 10.0) system organ class (SOC), sorted alphabetically, and by preferred term (PT), in decreasing frequency of occurrence. Treatment-emergent AEs were expressed in terms of intensity (using NCI CTCAE) and relationship to study drug.
Using the results from the summary of clinical efficacy (SCE) and summary of clinical safety (SCS) findings, different patient subgroups were analyzed. Subgroup distinguishers included race (white, black, and other), age (<65 years, […], and >75 years), weight (<70 kg, ≥70−<90 kg, and ≥90 kg), body mass index (BMI) (≤20, >20 to 30, and >30 kg/m^2)), region (North-America, Western Europe, Central and Eastern Europe and Other), and stage of prostate cancer (e.g., localized, locally advanced, and metastatic).

[1] = PCA = Localised, pooled degarelix
[2] = PCA = Locally advanced, pooled degarelix
[3] = PCA = Metastatic, pooled degarelix
[4] = Weight 70-<90 kg, pooled degarelix
[5] = Weight <70 kg, pooled degarelix
[6] = Weight >=90 kg, pooled degarelix
[7] = degarelix 240/80 mg, listed as degarelix

## CC(=O)N[C@H](Cc1ccc2ccccc2c1)C(=O)N[C@H](Cc1ccc(Cl)cc1)C(=O)N[C@H](Cc1cccnc1)C(=O)N[C@@H](CO)C(=O)N[C@@H](Cc1ccc(NC(=O)[C@@H]2CC(=O)NC(=O)N2)cc1)C(=O)N[C@H](Cc1ccc(NC(N)=O)cc1)C(=O)N[C@@H](CC(C)C)C(=O)N[C@@H](CCCCNC(C)C)C(=O)N1CCC[C@H]1C(=O)N[C@H](C)C(N)=O [Degarelix, D-Alaninamide, N-acetyl-3-(2-naphthalenyl)-D-alanyl-4-chloro-D-phenylalanyl-3-(3-pyridinyl)-D-alanyl-L-seryl-4-[[[(4S)-hexahydro-2,6-dioxo-4-pyrimidinyl]carbonyl]amino]-L phenylalanyl-4-[(aminocarbonyl)amino]-D-phenylalanyl-L leucyl-N6-(1-methylethyl)-L-lysyl-L-prolyl] (Ac-[d2Nal][dPhe(4-Cl)][d3Pal]S[Phe(4-NH2)](Dihydroorotyl(S))[dPhe(4-NHCONH2)]L[Lys(iPr)]P[dA]-NH2)
Age <65, pooled degarelix
  Gastrointestinal disorders, % of patients: (9%)*
  Infections and infestations, % of patients: (16%)
  Musculoskeletal and connective tissue disorders, % of patients: (9%)**
  Renal and urinary disorders, % of patients: (10%)*
  Subjects with adverse events, %: (75%)
  Urinary retention, % of patients: (1%)*
[1]
  Depression, % of patients: (<1%)*
  Erectile dysfunction, % of patients: (<1%)*
  Gynaecomastia, % of patients: (<1%)
  Infections and infestations, % of patients: (17%)
  Musculoskeletal and connective tissue disorders, % of patients: (16%)
  Neoplasms benign, malignant and unspecified, % of patients: (3%)
  Oedema peripheral, % of patients: (2%)*
  Psychiatric disorders, % of patients: (9%)
  Reproductive system and breast disorders, % of patients: (4%)
  Subjects with adverse events, %: (81%)
  Upper respiratory tract infection, % of patients: (3%)
  Urinary tract infection, % of patients: (2%)*
[2]
  Arthralgia, % of patients: (2%)**
  Back pain, % of patients: ( 5%)
  Cardiac disorders, % of patients: (3%)
  Diarrhoea, % of patients: (<1%)*
  Dyspnoea, N patients: 0
  Fall, % of patients: (<1%)
  Gastrointestinal disorders, % of patients: (13%)
  Infections and infestations, % of patients: (13%)
  Injury, poisoning and procedural complications, % of patients: (2%)**
  Muscle strain, % of patients: (<1%)
  Musculoskeletal and connective tissue disorders, % of patients: (10%)
  Respiratory, thoracic and mediastinal disorders, % of patients: ( 7%)
  Subjects with adverse events, %: (74%)
  Urinary tract infection, % of patients: (<1%)**
[3]
  Arthralgia, % of patients: ( 5%)
  Back pain, % of patients: ( 5%)
  Gastrointestinal disorders, % of patients: (15%)
  Musculoskeletal and connective tissue disorders, % of patients: (21%)
  Pain in extremity, % of patients: ( 1%)
  Subjects with adverse events, %: (81%)
Race = Other, pooled degarelix
  Erectile dysfunction, % of patients: (2%)*
  Infections and infestations, % of patients: (33%)
  Reproductive system and breast disorders, % of patients: (10%)
  Subjects with adverse events, %: (95%)
  Urinary tract infection, % of patients: (5%)*
Race = White, pooled degarelix
  Cardiac disorders, % of patients: (10%)
  Chest pain, % of patients: (<1%)*
  Cystitis noninfective, N patients: 0
  Deep vein thrombosis, N patients: 0
  Infections and infestations, % of patients: (19%)
  Investigations, % of patients: (26%)
  Musculoskeletal and connective tissue disorders, % of patients: (15%)**
  Musculoskeletal stiffness, N patients: 0
  Myocardial ischaemia, % of patients: (<1%)*
  Oedema peripheral, % of patients: (1%)*
  Orthostatic hypotension, N patients: 0
  Renal and urinary disorders, % of patients: (14%)
  Subjects with adverse events, %: (79%)
  Upper respiratory tract infection, % of patients: (<1%)*
  Urinary retention, % of patients: ( 1%)*
  Vascular disorders, % of patients: (31%)
[4]
  Cardiac disorders, % of patients: ( 5%)*
  Erectile dysfunction, % of patients: (<1%)*
  Nervous system disorders, % of patients: (12%)
  Reproductive system and breast disorders, % of patients: ( 5%)
  Subjects with adverse events, %: (81%)
[5]
  Arthralgia, % of patients: ( 3%)**
  Musculoskeletal and connective tissue disorders, % of patients: (17%)*
  Pelvic pain, N patients: 0
  Reproductive system and breast disorders, % of patients: (4%)*
  Subjects with adverse events, %: (78%)
[6]
  Arthralgia, % of patients: ( 5%)
  Back pain, % of patients: ( 5%)*
  Infections and infestations, % of patients: (26%)
  Musculoskeletal and connective tissue disorders, % of patients: (15%)*
  Neoplasms benign, malignant and unspecified, % of patients: (1%)*
  Subjects with adverse events, %: (84%)
  Urinary tract infection, % of patients: ( 3%)*
Degarelix 240/80 mg
  ADRs, % of patients: 57%
  ADRs, E events: 459
  ADRs, N patients: 118
  AEs leading to discontinuation, % of patients: 7%
  AEs leading to discontinuation, E events: 15
  AEs leading to discontinuation, N patients: 15
  Alanine aminotransferase increased, % of patients: (10%)
  All AEs, E = number of adverse events: 937
  All AEs, N = number of patients: 163
  Arthralgia, % of patients: ( 5%)
  Aspartate aminotransferase increased, % of patients: ( 5%)
  Back pain, % of patients: ( 6%)
  Blood & lymphatic system disorders, % of patients: ( 2%)
  Cardiac disorders, % of patients: ( 8%)
  Chills, % of patients: ( 5%)
  Constipation, % of patients: ( 5%)
  Deaths (Grade 5), % of patients: 2%
  Deaths (Grade 5), E events: 5
  Deaths (Grade 5), N patients: 5
  Ear & labyrinth disorders, % of patients: ( 3%)
  Endocrine disorders, % of patients: (<1%)
  Eye disorders, % of patients: ( 3%)
  Fatigue, % of patients: ( 3%)
  Gastrointestinal disorders, % of patients: (18%)
  General disorders & administration site conditions, % of patients: (44%)
  Hepatobiliary disorders, % of patients: (<1%)
  Hot flush, % of patients: (26%)
  Hypercholesterolaemia, % of patients: ( 3%)
  Hypertension, % of patients: ( 6%)
  Immune system disorders, % of patients: (<1%)
  Infections & infestations, % of patients: (22%)
  Injection site erythema, % of patients: (17%)
  Injection site induration, % of patients: ( 4%)
  Injection site nodule, % of patients: ( 3%)
  Injection site pain, % of patients: (28%)
  Injection site swelling, % of patients: ( 6%)
  Injury, poisoning & procedural complications, % of patients: ( 5%)
  Investigations, % of patients: (26%)
  Metabolism & nutrition disorders, % of patients: ( 7%)
  Musculoskeletal & connective tissue disorders, % of patients: (15%)
  Nausea, % of patients: ( 4%)
  Neoplasms benign, malignant & unspecified, % of patients: ( 5%)
  Nervous system disorders, % of patients: (12%)
  Psychiatric disorders, % of patients: ( 8%)
  Renal & urinary disorders, % of patients: (14%)
  Reproductive system & breast disorders, % of patients: ( 4%)
  Respiratory, thoracic & mediastinal disorders, % of patients: (12%)
  Serious AEs, % of patients: 10%
  Serious AEs, E events: 26
  Serious AEs, N patients: 21
  Skin & subcutaneous tissue disorders, % of patients: ( 9%)
  Urinary tract infection, % of patients: ( 5%)
  Vascular disorders, % of patients: (34%)
  Weight increased, % of patients: ( 9%)
Degarelix 240/80 mg s.c., leuprolide 7.5 mg i.m.
  Injection site adverse events, % of subjects: 35%
Degarelix 240/80 mg, leuprolide 7.5 mg
  ADRs excluding injection site reactions, % of patients: 43%
[7]
  Arthralgia, % of patients: 5%
  Back pain, % of patients: 6%
  Chills, % of patients: 5%
  Constipation, % of patients: 5%
  Fatigue, % of patients: 3%
  Hot flush, % of patients: 26%
  Hypertension, % of patients: 6%
  Injection site erythema, % of patients: 17%
  Injection site induration, % of patients: 4%
  Injection site nodule, % of patients: 3%
  Injection site pain, % of patients: 28%
  Injection site swelling, % of patients: 6%
  Musculoskeletal & connective tissue disorders, % of patients: 15%
  Treatment-emergent adverse events (all AEs), % of patients: 79%
  Urinary tract infection, % of patients: 5%
  Weight increased, % of patients: 9%
Degarelix 240/160 mg
  ADRs excluding injection site reactions, % of patients: 44%
  ADRs, % of patients: 59%
  ADRs, E events: 463
  ADRs, N patients: 120
